Reference: US6716858B1, “Methods for inhibiting diabetic complications” (Kansas University Medical Center, priority 1995, dated 2004)

What was measured:
[1] = test system: AGE formation in bovine serum albumin (BSA); assay: Uninterrupted glycation of BSA with glucose, anti-AGE ELISA; assay type: biochemical; conditions: BSA 10 mg/ml, 1.0 M glucose, pH 7.5, 37° C., 6 weeks; inhibitors 3, 15 and 50 mM
Protocol: (§1) Uninterrupted Glycation with Glucose Bovine serum albumin, ribonuclease A, and human hemoglobin were incubated with glucose at 37° C. in 0.4 M sodium phosphate buffer of pH 7.5 containing 0.02% sodium azide. The protein, glucose (at 1.0 M), and prospective inhibitors (at 0.5, 3, 15 and 50 mM) were introduced into the incubation mixture simultaneously. Solutions were kept in the dark in capped tubes. Aliquots were taken and immediately frozen until analyzed by ELISA at the conclusion of the reaction. The incubations were for 3 weeks (Hb) or 6 weeks (RNase, BSA).
(§2) ELISA detection of AGE products. The general method of Engvall (1981, Methods Enzymol. 70:419-439) was used to perform the ELISA. Typically, glycated protein samples were diluted to approximately 1.5 ug/ml in 0.1 M sodium carbonate buffer of pH 9.5 to 9.7. The protein was coated overnight at room temperature onto 96-well polystyrene plates by pippetting 200 ul of the protein solution in each well (0.3 ug/well). After coating, the protein was washed from the wells with a saline solution containing 0.05% Tween-20. The wells were then blocked with 200 ul of 1% casein in carbonate buffer for 2 h at 37° C. followed by washing. Rabbit anti-AGE antibodies were diluted at a titer of about 1:350 in incubation buffer, and incubated for 1 h at 37° C., followed by washing. In order to minimize background readings, antibodies R479 used to detect glycated RNase were raised against glycated BSA, and antibodies R618 used to detect glycated BSA and glycated Hb were raised against glycated RNase. An alkaline phosphatase-conjugated antibody to rabbit IgG was then added as the secondary antibody at a titer of 1:2000 or 1:2500 (depending on lot) and incubated for 1 h at 37° C., followed by washing. The p-nitrophenylphosphate substrate solution was then added (200 ul/well) to the plates, with the absorbance of the released p-nitrophenolate being monitored at 410 nm with a Dynatech MR 4000 microplate reader.
FIGS. 1 A-D are graphs which show the effect of vitamin B6 derivatives on post-Amadori AGE formation in bovine serum albumin glycated with glucose. BSA (10 mg/ml) was incubated with 1.0 M glucose in the presence and absence of the various indicated derivative in 0.4 M sodium phosphate buffer of pH 7.5 at 37° C. for 6 weeks. Aliquots were assayed by ELISA using R618 anti-AGE antibodies. Concentrations of the inhibitors were 3, 15 and 50 mM. Inhibitors used in FIGS. (1A) Pyridoxamine (PM); (1B) pyridoxal phosphate (PLP); (1C) pyridoxal (PL); (1D) pyridoxine (PN).
FIGS. 2A-D are graphs which show the effect of vitamin B1 derivatives and aminoguanidine (AG) on AGE formation in bovine serum albumin. BSA (10 mg/ml) was incubated with 1.0 M glucose in the presence and absence of the various indicated derivative in 0.4 M sodium phosphate buffer of pH 7.5 at 37° C. for 6 weeks. Aliquots were assayed by ELISA using R618 anti-AGE antibodies. Concentrations of the inhibitors were 3, 15 and 50 mM. Inhibitors used in FIGS. (2A) Thiamine pyrophosphate (TPP); (2B) thiamine monophosphate (TP); (2C) thiamine (T); (2D) aminoguanidine (AG).

[2] = test system: post-Amadori AGE formation, BSA Amadori intermediate; assay: Interrupted (post-Amadori) ribose glycation assay, BSA; assay type: biochemical, bovine; conditions: 24 h in 0.5 M ribose, then free ribose removed, 37° C.
Protocol: as §2
Glycation was first carried out by incubating protein (10 mg/ml) with 0.5 M ribose at 37° C. in 0.4 M phosphate buffer at pH 7.5 containing 0.2% sodium azide for 24 h in the absence of inhibitors. Glycation was then interrupted to remove excess and reversibly bound (Schiff base) sugar by extensive dialysis against frequent cold buffer changes at 4° C. The glycated intermediate samples containing maximal amount of Amadori product and little AGE (depending on protein) were then quickly warmed to 37° C. without re-addition of ribose. This initiated conversion of Amadori intermediates to AGE products in the absence or presence of various concentrations (typically 3, 15 and 50 mM) of prospective inhibitors. Aliquots were taken and frozen at various intervals for later analysis. The solutions were kept in capped tubes and opened only to remove timed aliquots that were immediately frozen for later carrying out the various analyses.

[3] = test system: post-Amadori AGE formation, RNase Amadori intermediate; assay: Interrupted (post-Amadori) ribose glycation assay, RNase; assay type: biochemical, bovine; conditions: RNase, 24 h in 0.5 M ribose, then free ribose removed, 37° C.
Protocol: as §2
Glycation Modifications Modification with ribose or glucose was generally done at 37° C. in 0.4 M phosphate buffer of pH 7.5 containing 0.02% sodium azide. The high buffer concentration was always used with 0.5 M ribose modifications. The solutions were kept in capped tubes and opened only to remove timed aliquots that were immediately frozen for later carrying out the various analyses. “Interrupted glycation” experiments were carried out by first incubating protein with the ribose at 37° C. for 8 or 24 h, followed by immediate and extensive dialysis against frequent cold buffer changes at 4° C. The samples were then reincubated by quickly warming to 37° C. in the absence of external ribose. Aliquots were taken and frozen at various intervals for later analysis. Due to the low molecular weight of RNase, protein concentrations were remeasured after dialysis even when low molecular weight cut-off dialysis tubing was used. An alternative procedure was also devised (see below) in which interruption was achieved by simple 100-fold dilution from reaction mixtures containing 0.5 M ribose. Protein concentrations were estimated from UV spectra. The difference in molar extinction between the peak (278 nm) and trough (250 nm) was used for RNase concentration determinations in order to compensate for the general increase in UV absorbance that accompanies glycation. Time-dependent UV-difference spectral studies were carried out to characterize the glycation contributions of the UV spectrum. […]
Glycation was first carried out by incubating protein (10 mg/ml) with 0.5 M ribose at 37° C. in 0.4 M phosphate buffer at pH 7.5 containing 0.2% sodium azide for 24 h in the absence of inhibitors. Glycation was then interrupted to remove excess and reversibly bound (Schiff base) sugar by extensive dialysis against frequent cold buffer changes at 4° C.

[4] = test system: AGE formation during uninterrupted glycation of ribonuclease A (RNase A) by ribose; assay: Uninterrupted ribose glycation assay, RNase; assay type: biochemical, bovine; conditions: continuous 0.05 M ribose, 6 weeks, inhibitors 0.5-50 mM
Protocol: as §2
as §1, with “ribose glycation assays” for “Glycation with Glucose”, “ribose” for “glucose”, “protein (10 mg/ml or 1 mg/ml), 0.05 M ribose,” for “protein, glucose (at 1.0 M),”, “BSA). Glycation reactions were monitored for constant pH throughout the duration of the experiments.” for “BSA).”
The inhibitory effects of vitamin B1 and B6 derivatives on the kinetics of antigenic AGE formation were evaluated by polyclonal antibodies specific for AGEs. Initial inhibition studies were carried out on the glycation of bovine ribonuclease A (RNase) in the continuous presence of 0.05 M ribose, which is the concentration of ribose where the rate of AGE formation is near maximal.

[5] = test system: AGE formation during uninterrupted glycation of bovine serum albumin (BSA) by ribose; assay: Uninterrupted ribose glycation assay, BSA; assay type: biochemical; conditions: 0.05 M ribose, 6 weeks, inhibitors 0.5-50 mM
Protocol: as §2
as §1, with “ribose glycation assays” for “Glycation with Glucose”, “ribose” for “glucose”, “protein (10 mg/ml or 1 mg/ml), 0.05 M ribose,” for “protein, glucose (at 1.0 M),”, “BSA). Glycation reactions were monitored for constant pH throughout the duration of the experiments.” for “BSA).”

rats = assay: Ribose administration to rats (Phase I and II), renal physiology; assay type: in vivo, rat
Protocol: Two groups of six rats each were given in one day either:
a. 300 mM ribose (two intraperitoneal infusions 6-8 hours apart, each 5% of body weight as ml); or
b. 50 mM ribose (one infusion)
Rats were then kept for 4 days with no further ribose administration, at which time they were sacrificed and the following physiological measurements were determined: (i) initial and final body weight; (ii) final stage kidney weight; (iii) initial and final tail-cuff blood pressure; (iv) creatinine clearance per 100 g body weight.
Groups of rats (3-6) were intraperitoneally given 0.3 M “low ribose dose” (LR) or 1.0 M “high ribose dose” (HR) by twice-daily injections for either (i) 1 day, (ii) a “short-term” (S) of 4 days, or (iii) a “long-term” (L) of 8 days. Additionally, these concentrations of ribose were included in drinking water.

ribose-treated rats = assay: Ribose rat model, intervention by compounds (Phase III); assay type: in vivo; conditions: 1 M ribose alone, 8 days
Protocol: Sixty rats were randomized into 9 different groups, including those exposed to 1 M ribose for 8 days in the presence and absence of aminoguanidine, pyridoxamine, and thiamine pyrophosphate as follows:
(ii) high dose (250 mg/kg body weight) of pyridoxamine (“compound-P”);
(iii) high dose (250 mg/kg body weight of thiamine pyrophosphate (“compound-T” or “TPP”); and
(iv) low dose (25 mg/kg body weight) of aminoguanidine (“AG”).
(i) only 1 M ribose-saline (2×9 cc daily IP for 8 days);
(ii) ribose plus low dose (“LP”) of pyridoxamine (25 mg/kg body weight injected as 0.5 ml with 9 cc ribose);
(iii) ribose plus high dose (“HP”) of pyridoxamine (250 mg/kg body weight injected as 0.5 ml with 9 cc ribose);
(iv) ribose plus high dose (“HT”) of thiamine pyrophosphate (250 mg/kg body weight injected as 0.5 ml with 9 cc ribose); and
(v) ribose plus low dose of amino guanidine (25 mg/kg body weight injected as 0.5 ml with 9 cc ribose).
Unlike Phase II, no ribose was administered in drinking water. Intervention compounds were pre-administered for one day prior to introducing them with ribose.

[6] = Phase II: 0.3 M or 1.0 M ribose for 1, 4 or 8 days

inhibition of post-Amadori AGE formation [3]	creatinine clearance (rats; high ribose (2×300 mM), normal range expected about 1.0-1.2) [cc per 100 g body weight]	creatinine clearance (rats; low ribose (1×50 mM), normal range expected about 1.0-1.2) [cc per 100 g body weight]	Albumin effusion rate (AER) (ribose-treated rats)	SMILES	inhibition of antigenic AGE formation (ELISA) [1]	inhibition of post-Amadori AGE formation [2]	inhibition of overall kinetics of AGE formation from ribose [4]	inhibition of overall kinetics of AGE formation from ribose [5]	Albumin effusion rate (AER) (rats; [6])	creatinine clearance (rats; [6])	tail-cuff blood pressure (rats; Phase II: 0.3 M or 1.0 M ribose twice daily IP for 1, 4 or 8 days, also in drinking water)	tail-cuff blood pressure (rats; high ribose (2×300 mM) in one day, measured 4 days later, from 66±4)	tail-cuff blood pressure (rats; low ribose (1×50 mM) in one day, measured 4 days later, from 66±4)
showed some intermediate effect				Cc1ncc(C[n+]2csc(CCOP(=O)(O)O)c2C)c(N)n1 [thiamine monophosphate]	not inhibitory	showed some intermediate effect	little effect on the rate of AGE formation, but a substantial decrease in the final level of AGE formed in the presence of the highest concentration of inhibitor						
showed no effect				Cc1ncc(C[n+]2csc(CCO)c2C)c(N)n1 [thiamine]	not inhibitory	showed no effect	little effect on the rate of AGE formation, but a substantial decrease in the final level of AGE formed in the presence of the highest concentration of inhibitor	inhibited the final levels of AGEs formed, without greatly affecting the rate of AGE formation					
showed significant inhibition at 15 mM				Cc1ncc(COP(=O)(O)O)c(C=O)c1O [pyridoxal phosphate, pyridoxal-5′-phosphate]	strongly suppressed antigenic AGE formation at even the lowest concentrations tested		significantly inhibited the rate of AGE formation on RNase at concentrations of 50 mM and 15 mM	mostly inhibited the rate of AGE formation, but not the final levels of AGE formed					

Continued, compound first:

SMILES	inhibition of post-Amadori AGE formation [3]	creatinine clearance (rats; high ribose (2×300 mM), normal range expected about 1.0-1.2) [cc per 100 g body weight]	creatinine clearance (rats; low ribose (1×50 mM), normal range expected about 1.0-1.2) [cc per 100 g body weight]	Albumin effusion rate (AER) (ribose-treated rats)	inhibition of antigenic AGE formation (ELISA) [1]	inhibition of post-Amadori AGE formation [2]	inhibition of overall kinetics of AGE formation from ribose [4]	inhibition of overall kinetics of AGE formation from ribose [5]	Albumin effusion rate (AER) (rats; [6])	creatinine clearance (rats; [6])	tail-cuff blood pressure (rats; Phase II: 0.3 M or 1.0 M ribose twice daily IP for 1, 4 or 8 days, also in drinking water)	tail-cuff blood pressure (rats; high ribose (2×300 mM) in one day, measured 4 days later, from 66±4)	tail-cuff blood pressure (rats; low ribose (1×50 mM) in one day, measured 4 days later, from 66±4)
O=C[C@H](O)[C@H](O)[C@H](O)CO [ribose]	diminished by increasing ribose concentrations	0.62±0.13	0.87±0.15	elevated					increased significantly in a ribose-dependent manner at 1-day and 4-day exposures	decreased in all groups in a ribose dose-dependent and time-dependent manner	increased in all groups of ribose-treated rats	106±5	83±3
Cc1ncc(CO)c(C=O)c1O [pyridoxal]	did not show any significant inhibition at 15 mM				effective above 15 mM		significantly inhibited the rate of AGE formation on RNase at concentrations of 50 mM and 15 mM	mostly inhibited the rate of AGE formation, but not the final levels of AGE formed					
Cc1ncc(CO)c(CO)c1O [pyridoxine]					slightly effective at the highest concentrations tested	did not produce any inhibition	moderately inhibited AGE formation on RNase	failed to inhibit AGE formation on BSA					
